US20130217892A1, “Use Of N-Substituted 2-Pyrrolidone-4-Carboxylic Acid Esters And Solvents” (CLARIANT FINANCE (BVI) LIMITED, priority 2010, published 2013)

Experiment: Solubilities of pesticides in compounds of the formula (1)
Type: physicochemical
Description: The solubilities of various pesticides were determined in various compounds of the formula (1) at 25° C. All data are in % by weight (Table 1).

## CCCCOC(=O)C1CC(=O)N(C)C1 (centres unmarked) [example 3, N-Butyl N-Methyl-2-Pyrrolidone-4-Carboxylate]
  Solubility of Pendimethalin in the compound of the formula (1): 38.9 % by weight
  Solubility of Tebuconazole in the compound of the formula (1): 37.0 % by weight
  Solubility of Triadimefon in the compound of the formula (1): 43.0 % by weight
  Solubility of Trifloxystrobin in the compound of the formula (1): 30.1 % by weight
  Solubility of Trifluralin in the compound of the formula (1): 57.4 % by weight
